Source: patent US8598114B2, “Antimicrobial compounds” (priority 2007, dated 2013)
“And” between values parts separate entries of the source, which are not always exact repeats. Equal values may be shown once.

Tests used:
[1] = test system: Streptococcus constellatus; assay: MIC, CLSI microbroth dilution (aerobic bacteria); format: cell-based; parameters: unit not given beside the values
From the text: (§1) Cation-adjusted Mueller-Hinton broth (Oxoid Ltd., Basingstoke, UK and Trek Diagnostic Systems Ltd., East Grinstead, UK) (supplemented with 5% laked horse blood for Streptococcus spp., Corynebacterium jeikeium and Listeria monocytogenes) was used for aerobic bacteria, with an initial inoculum of approximately 10^5 colony-forming units (CFU)/mL.

Group G Streptococcus = assay: MIC, CLSI microbroth dilution (aerobic bacteria); format: cell-based; parameters: unit not given beside the values
From the text: as §1

[2] = test system: Staphylococcus epidermidis; assay: MIC, CLSI microbroth dilution (aerobic bacteria); format: cell-based; parameters: unit not given beside the values
From the text: as §1

[3] = test system: Stenotrophomonas maltophilia; assay: MIC, CLSI microbroth dilution (aerobic bacteria); format: cell-based; parameters: unit not given beside the values; conditions: Stenotrophomonas maltophilia - antibiotic-susceptible clinical isolate
From the text: as §1

Enterococcus faecalis = assay: MIC, CLSI microbroth dilution (aerobic bacteria); format: cell-based; parameters: unit not given beside the values
From the text: as §1
(§2) To evaluate whether freezing affected the activity of the peptides some MIC determinations were repeated using plates containing freshly-prepared Mueller-Hinton broth.

Escherichia coli = assay: MIC, CLSI microbroth dilution (aerobic bacteria); format: cell-based; parameters: unit not given beside the values
From the text: as §1, §2

Pseudomonas aeruginosa = assay: MIC, CLSI microbroth dilution (aerobic bacteria); format: cell-based; parameters: unit not given beside the values
From the text: as §1, §2

Clostridium perfringens = format: cell-based; conditions: Clostridium perfringens - antibiotic-susceptible clinical isolate
Haemophilus influenzae = assay: MIC, CLSI microbroth dilution (Haemophilus test medium)
Clostridium difficile = assay: MIC, CLSI microbroth dilution (anaerobic bacteria); format: cell-based; conditions: Clostridium difficile - antibiotic-susceptible clinical isolate
Procedure: M11-A6 Vol. 24 No. 2 Methods for Antimicrobial Susceptibility Testing of Anaerobic Bacteria; Approved Standard-Sixth Edition.
Supplemented Brucella broth (SBB) was used for the anaerobic strains with an inoculum of approximately 10^6 CFU/mL. SBB is a broth consisting of 1% peptone, 0.5% ‘Lab-lemco’, 1% glucose and 0.5% sodium chloride supplemented with 5 […] vitamin K (both obtained from Sigma Aldrich Ltd.)

Candida parapsilosis = assay: MIC, CLSI microbroth dilution (yeasts); format: cell-based; parameters: unit not given beside the values
Procedure: (§3) M27-A2 Vol. 22 No. 15 Reference Method for Broth Dilution Antifungal Susceptibility Testing of Yeasts; Approved Standard-Second Edition.
(§4) Yeast and filamentous fungal MIC were performed in MOPS buffered RPMI 1640 medium (MOPS buffer obtained from Sigma Aldrich Ltd., RPMI 1640 obtained from Invitrogen Ltd, Paisley, Scotland). The yeast inocula were in the range 7.5×10^2-4×10^3 CFU/mL and the filamentous fungi approximately 8×10^3-1×10^5CFU/mL

[4] = test system: Candida (Issatchenkia) krusei; assay: MIC, CLSI microbroth dilution (yeasts); format: cell-based; parameters: unit not given beside the values
Procedure: as §3, §4

Cryptococcus neoformans = assay: MIC, CLSI microbroth dilution (yeasts); format: cell-based; parameters: unit not given beside the values; conditions: Cryptococcus neoformans - G.R. Micro collection
Procedure: as §3, §4

Candida albicans = assay: MIC, CLSI microbroth dilution (yeasts); format: cell-based; parameters: unit not given beside the values
Procedure: as §3, §4

Candida tropicalis = assay: MIC, CLSI microbroth dilution (yeasts); format: cell-based; parameters: unit not given beside the values; conditions: Candida tropicalis ATCC750 - reference strain
Procedure: as §3, §4

Staphylococcus aureus = assay: MIC, CLSI microbroth dilution (aerobic bacteria); format: cell-based; parameters: unit not given here
From the text: as §1, §2

Acinetobacter baumanii = assay: MIC, CLSI microbroth dilution (aerobic bacteria); format: cell-based; conditions: Acinetobacter baumanii - antibiotic-susceptible clinical isolate
From the text: as §1

[5] = test system: Staphylococcus haemolyticus; assay: MIC, CLSI microbroth dilution (aerobic bacteria); format: cell-based; conditions: Staphylococcus haemolyticus - antibiotic susceptible clinical isolate
From the text: as §1

Corynebacterium jeikeium = assay: MIC, CLSI microbroth dilution (aerobic bacteria); format: cell-based
From the text: as §1

Enterococcus faecium = assay: MIC, CLSI microbroth dilution (aerobic bacteria); format: cell-based
From the text: as §1

Enterococcus gallinarum = assay: MIC, CLSI microbroth dilution (aerobic bacteria); format: cell-based; conditions: Enterococcus gallinarum vancomycin-resistant (VanC) clinical isolate
From the text: as §1

Microsporum canis = assay: MIC, CLSI microbroth dilution (filamentous fungi); format: cell-based; conditions: Microsporum canis - G.R. Micro collection
Procedure: M38-A Vol. 22 No. 16 Reference Method for Broth Dilution Antifungal Susceptibility Testing of Filamentous Fungi; Approved Standard.
as §4

Eggerthella lenta = assay: MIC, CLSI microbroth dilution (anaerobic bacteria); format: cell-based; parameters: unit not given here; conditions: Eggerthella lenta - ATCC 43055, SBB (Table 2)
Bacteroides fragilis = assay: MIC, CLSI microbroth dilution (anaerobic bacteria); format: cell-based; parameters: unit not given here; conditions: Bacteroides fragilis - ATCC 25285, SBB (Table 2)

In the case of `N=C(N)NCCCC(N)C(=O)NC(Cc1ccc(-c2ccc3ccccc3c2)cc1)C(=O)NC(CCCNC(=N)N)C(=O)NCCc1ccccc1` (stereo not shown) [Compound 1], the MIC ([1]; Streptococcus constellatus - antibiotic-susceptible clinical isolate) is reported as 64, the MIC ([1]; Streptococcus constellatus - macrolide-resistant clinical isolate) is reported as 64 and the MIC (Group G Streptococcus; Group G Streptococcus - antibiotic-susceptible clinical isolate) is reported as 32. The MIC (Group G Streptococcus; Group G Streptococcus - macrolide-resistant clinical isolate) was 32, the MIC ([2]; Staphylococcus epidermidis antibiotic susceptible clinical isolate) was 16 and the MIC ([2]; Staphylococcus epidermidis methicillin-resistant clinical isolate) was 2. The MIC [3] was 64, the MIC (Enterococcus faecalis; Enterococcus faecalis - ATCC 29212 antibiotic-susceptible control (Table 1)) was 4 and the MIC (Enterococcus faecalis; Enterococcus faecalis high-level gentamicin-resistant clinical isolate) was 16. It also gave an MIC (Enterococcus faecalis; Enterococcus faecalis vancomycin-resistant (VanA) clinical isolate) of 16, an MIC (Enterococcus faecalis; Enterococcus faecalis vancomycin-resistant (VanB) clinical isolate) of 16 and an MIC (Enterococcus faecalis; Enterococcus faecalis vancomycin-susceptible clinical isolate) of 8. The MIC (Enterococcus faecalis; GP11 Enterococcus faecalis - ATCC 29212 control strain, repeat results (Table 2), Fresh MHB) was 4, the MIC (Enterococcus faecalis; GP11 Enterococcus faecalis - ATCC 29212 control strain, repeat results (Table 2), Frozen MHB) was 8 and the MIC (Escherichia coli; Escherichia coli - multi-drug resistant clinical isolate) was 32. The MIC (Escherichia coli; Escherichia coli ATCC25922 - antibiotic-susceptible type strain) was 32, the MIC (Escherichia coli; Escherichia coli ATCC32518 - β-lactamase positive type strain) was 32 and the MIC (Escherichia coli; GN01 Escherichia coli ATCC 25922 type strain, repeat results (Table 2), Fresh MHB) was 16. The MIC (Escherichia coli; GN01 Escherichia coli ATCC 25922 type strain, repeat results (Table 2), Frozen MHB) was 32, the MIC (Pseudomonas aeruginosa; GN10 Pseudomonas aeruginosa ATCC 27853 type strain, repeat results (Table 2), Fresh MHB) was 8 and the MIC (Pseudomonas aeruginosa; GN10 Pseudomonas aeruginosa ATCC 27853 type strain, repeat results (Table 2), Frozen MHB) was 16 and 32. For the same compound, the MIC (Pseudomonas aeruginosa; Pseudomonas aeruginosa - multi-drug resistant clinical isolate) was 32, the MIC (Pseudomonas aeruginosa; Pseudomonas aeruginosa ATCC27853 - antibiotic-susceptible type) was 16 and the MIC (Clostridium perfringens) was “≧128”. The MIC (Haemophilus influenzae; Haemophilus influenzae - β-lactamase negative clinical isolate) was “≧128”, the MIC (Haemophilus influenzae; Haemophilus influenzae - β-lactamase positive clinical isolate) was “≧128” and the MIC (Haemophilus influenzae; Haemophilus influenzae β-lactamase negative ampicillin-resistant) was “≧128”. The MIC (Clostridium difficile) was 32, the MIC (Candida parapsilosis; Candida parapsilosis ATCC 22019, RPMI 1640 (Table 2)) was 4 and the MIC (Candida parapsilosis; Candida parapsilosis ATCC90018 - reference strain) was 4. The MIC ([4]; Candida (Issatchenkia) krusei ATCC6258 - reference strain) was 4, the MIC ([4]; F05 Candida (Issatchenkia) krusei ATCC 6258 reference strain, repeat results (Table 2), RPMI 1640) was 8 and the MIC (Cryptococcus neoformans) was 4. For the same compound, the MIC (Candida albicans; Candida albicans ATCC24433 - reference strain) was 2, the MIC (Candida albicans; Candida albicans ATCC90028 - reference strain) was 2 and the MIC (Candida tropicalis) was 2. It also gave an MIC (Staphylococcus aureus; EMRSA1 Staphylococcus aureus (MRSA) - SSCmec type 3) of 8, an MIC (Staphylococcus aureus; EMRSA3 Staphylococcus aureus (MRSA) - SSCmec type 1) of 4 and an MIC (Staphylococcus aureus; EMRSA15 Staphylococcus aureus (MRSA) - SSCmec type 4) of 4. The MIC (Staphylococcus aureus; EMRSA16 Staphylococcus aureus (MRSA) - SSCmec type 2) was 4, the MIC (Staphylococcus aureus; GP01 Staphylococcus aureus ATCC 29213 control strain, repeat results (Table 2), Fresh MHB) was 4 and the MIC (Staphylococcus aureus; GP01 Staphylococcus aureus ATCC 29213 control strain, repeat results (Table 2), Frozen MHB) was 8 and 4. It also gave an MIC (Staphylococcus aureus; HT2001254 Staphylococcus aureus (MRSA) - PVL positive) of 4, an MIC (Staphylococcus aureus; MU50 Staphylococcus aureus (MRSA) - VISA type strain) of 4 and an MIC (Staphylococcus aureus; Staphylococcus aureus - methicillin-resistant clinical isolate) of 4. For the same compound, the MIC (Staphylococcus aureus; Staphylococcus aureus - multi-drug-resistant clinical isolate) was 8, the MIC (Staphylococcus aureus; Staphylococcus aureus - teicoplanin-intermediate clinical isolate) was 4 and the MIC (Staphylococcus aureus; Staphylococcus aureus ATCC 25923 - antibiotic-susceptible control) was 4. The MIC (Staphylococcus aureus; Staphylococcus aureus ATCC 29213 - antibiotic-susceptible control (Table 1)) was 4, the MIC (Staphylococcus aureus; Staphylococcus aureus ATCC 43300 - methicillin-resistant control strain) was 4 and the MIC (Acinetobacter baumanii) was 64. For the same compound, the MIC [5] was 4, the MIC (Corynebacterium jeikeium; Corynebacterium jeikeium - antibiotic-susceptible clinical isolate) was 32 and the MIC (Corynebacterium jeikeium; Corynebacterium jeikeium - multi-drug resistant clinical isolate) was 32. The MIC (Enterococcus faecium; Enterococcus faecium vancomycin-resistant (VanA) clinical isolate) was 16, the MIC (Enterococcus faecium; Enterococcus faecium vancomycin-resistant (VanB) clinical isolate) was 8 and the MIC (Enterococcus faecium; Enterococcus faecium vancomycin-susceptible clinical isolate) was 8. It also gave an MIC (Enterococcus gallinarum) of 4, an MIC (Microsporum canis) of 8 and an MIC (Eggerthella lenta) of 16. For the same compound, the MIC (Bacteroides fragilis) was 64.
